# Laboratory results from article PMC8096218, “Global RNA profiles show target selectivity and physiological effects of peptide-delivered antisense antibiotics” (Nucleic Acids Research, 2021).
# Assays:
# fabF mRNA = experiment: RNA-seq differential expression, second gene of the dicistron; assay type: cell-based, Salmonella enterica serovar Typhimurium; settings: edgeR, versus water; 15 min; 5 μM KFF-/RXR-constructs, 10 μM Tat-constructs; triplicates
# Procedure: Bacterial overnight cultures were diluted 1:100 in fresh MHB and grown to OD600 0.5. The obtained cultures were diluted to ∼10^6 cfu/ml in non-cation-adjusted MHB. Afterward, the bacterial solution was transferred into low-binding 5 ml tubes (LABsolute) along with the 20× PNA, peptide or PPNA solution. The final concentrations were 5 μM for KFF- and RXR-PNAs, and 10 μM for Tat-PNAs. Equimolar concentrations were used for the respective peptide control conditions. As a negative control, cells were treated with the respective volume of sterile nuclease-free water, which was used as solvent for the test compounds. […]
# DNase treatment, cDNA library preparation and sequencing was conducted at Vertis (Munich, Germany). […] The cDNA was purified using the Agencourt AMPure XP kit (Beckman Coulter Genomics) and was analyzed by capillary electrophoresis. […] The cDNA pool was sequenced on an Illumina NextSeq 500 system using 75 bp read length.
# Reads from the RNA-Seq experiments were trimmed, filtered and mapped against the S. enterica subsp. enterica serovar Typhimurium SL1344 reference genome and the three plasmids pSLT_SL1344, pCol1B9_SL1344 (other name is p2), and pRSF1010_SL1344 ([19]). […]
# All downstream analysis was performed using packages from the R/Bioconductor project. The raw read counts were imported and analyzed with edgeR (v3.30.0). […]
# acpP mRNA = experiment: Northern blot of acpP transcript levels after PNA treatment; assay type: cell-based, Salmonella enterica serovar Typhimurium; settings: 5 μM, 5, 10 or 15 min, 10^6 cfu/ml; two biological replicates
# Procedure: For northern blotting, equal RNA amounts were used for gel electrophoresis (10 μg in Figure 4B; 100–150 ng in Figure 4E) and subsequent transfer to Hybond+ membranes (GE Healthcare Life Sciences). After crosslinking (0,12 J/cm^2), membranes were blocked using ROTI®Hybri-Quick (Roth) and incubated with RNA-specific digoxigenin (DIG; Roche)- or radioactively-labeled (5′ ^32P-labeling ([28])) oligonucleotides. In vitro transcription (MEGAscript T7 polymerase, Ambion), DIG-labeling of probes and northern blot detection was performed according to the manufacturer's instructions. Sequences of all the oligonucleotides (purchased from Eurofins Genomics or Sigma) employed for northern blot probe generation or RT-qPCR are listed in Supplementary Table S2. Signals were visualized on a phosphorimager (Typhoon FLA 7000, GE Healthcare) for radioactive probes, or using an ImageQuant (LAS 4000, GE Healthcare) for DIG-labeled probes.
# Bacterial overnight cultures were diluted 1:100 in fresh MHB and grown to OD600 0.5. […]
# Figure 4. […] In brief, 10^9 cfu were pelleted for the isolation of RNA, which was subsequently analyzed using (A) a denaturing polyacrylamide gel (1 μg/lane) and (B) northern blotting (10 μg/lane). […] (B) Transcript levels of two sRNAs, SroC and SdhX (SdhX1, SdhX2), and the loading control 5S were detected using sequence specific radioactive-labeled probes. […]
sequence,measurement,setting,value
"KFFKFFKFFK [KFF-acpP, KFF peptide conjugated to 10-mer antisense PNA against the translational start site of acpP]",logFC fabF,fabF mRNA,-1.1555
same,acpP mRNA levels (northern blot),acpP mRNA,rapid decrease of acpP mRNA levels from 5 min post treatment onwards
